“Also recorded” adds a separate entry of the source. Residues, ends and D or L forms follow the SMILES beside them. *: point of attachment. Palmitoyl = CCCCCCCCCCCCCCCC(=O)*
How the values were obtained:
wild type Drosophila = assay: Egg-to-adult viability test of wild-type flies; type: in vivo; settings: 10 or 50 μM in fly food, 21.5° C.
Experimental: Eggs laid within 5 hr were collected and cultured in fly food containing 10 or 50 μM of respective peptides at 21.5° C. Viability from egg to adult was calculated as the number of adult flies collected divided by the number of eggs examined. Data are expressed as mean±S.E.M. for 3 independent experiments. NS indicates no significance.
Flies were raised at 21.5° C. on cornmeal medium supplemented with dry yeast. Fly lines bearing UAS-DsRedCAG0 and UAS-DsRedCAG100 were kind gifts of Professor Nancy Bonini (University of Pennsylvania, USA). The gmr-GAL4 fly line was obtained from Bloomington Drosophila Stock Center. For pseudopupil assay, third instar larvae were fed with various amount of respective peptides dissolved in 2% sucrose solution for 2 hr and then continued to culture in standard fly food at 21.5° C.^38. Pseudopupil assay was performed on 12 day-old adult flies as mentioned previously^39. Images were captured by SPOT Insight CCD camera controlled by the SPOT Advanced software (Diagnostic instruments Inc.). Image processing was performed using the Adobe Photoshop CS software (Adobe). Each experiment was repeated at least 3 times (n=10 fly heads), and consistent results were obtained. […] Viability from egg-to-adult was calculated as the number of adult flies collected divided by the number of eggs examined. […]

MJDCAG78 RNA = assay: Isothermal titration calorimetry binding assay, expanded MJDCAG78 RNA; settings: ITC at 25° C.; 0.7 mM peptide titrated into 0.5 μM MJDCAG78 RNA; one binding site model; mean ± S.E.M.
Experimental: (§1) Experiments were carried out using a MicroCal iTC200 isothermal titration calorimeter (GE Healthcare) at 25° C. Data were analyzed using the Origin® scientific plotting software version 7 (Microcal Software Inc.). All RNAs and peptides were dissolved in binding buffer (20 mM MOPS, pH 7.0; 300 mM NaCl) and 0.7 mM of peptide was titrated into 0.5 μM of RNA for each experiment. The concentration of RNA was estimated with appropriate extinction coefficients at 260 nm on a Nanodrop 2000 (Thermo Scientific). A reference power of 8 μcal/s was used with an initial 0.5 μl of injection of peptide followed by 2 μl for all subsequent titrations points with a 60 sec initial equilibrium delay and 150 sec pause between injections. The samples were stirred at a speed of 1000 rpm throughout the experiment. The thermal titration data were fitted to the ‘one binding site model’ to determine the dissociation constant (KD). Each experiment was repeated at least 3 times with consistent results obtained.

pre-45s rRNA = assay: Real-time PCR of pre-45s rRNA level in EGFPCAG78 RNA-expressing HEK293 cells; type: cell-based, human; settings: with DeliverX
Experimental: It was next investigated whether P3V8 could also mitigate expanded CAG RNA-induced toxicity in mammalian cells. […] To compare the inhibitory activity of P3WT and P3V8, the peptide transfection reagent DeliverX (DX) was used to deliver P3WT and P3V8 to EGFPCAG78 RNA-expressing HEK293 cells. […] To confirm that P3V8 inhibited expanded CAG RNA-mediated nucleolar stress, the levels of pre-45s rRNA were measured in EGFPCAG78 RNA-expressing cells with or without treatment of P3V8 (FIG. 3C). Overexpression of the expanded CAG RNA reduced the level of pre-45s rRNA to approximately 40% of the untransfected control.
(§2) RNA was extracted from cells or ten 12 day-old adult fly heads by Trizol reagent (Life Technologies), and 1 μg of purified RNA was then used for reverse-transcription using the ImPromII™ Reverse Transcription System (Promega). Random hexamer (Roche) was used as primers in reverse transcription. Taqman gene expression assays were performed on an ABI 7500 Real-time PCR system and data were analyzed as previously described^13. The following probes were used: pre-45s rRNA (Assay ID: AILJIZM), pre-rRNA (Assay ID: AIMSG5U), Drosophila GAPDH (Assay ID: Dm01841186) and human actin (Assay ID: Hs99999903_m1). Each experiment was repeated at least 3 times.

pre-rRNA = assay: Real-time PCR of pre-rRNA level in DsRedCAG100 flies; type: in vivo, Drosophila; settings: 1 μM
Experimental: Ribosomal RNA (rRNA) synthesis occurs within the nucleolus^15. It was previously shown that expanded CAG RNA induces nucleolar stress by preventing the nucleolar protein NCL from binding to the upstream control element of the rRNA promoter, leading to the downregulation of rRNA transcription^13. To investigate whether P3V8 suppressed neurotoxicity by alleviating expanded CAG RNA-induced nucleolar stress in vivo, the expression levels of pre-rRNA in were measured DsRedCAG100 flies treated with the peptide. […] This confirms that P3V8 subdued polyQ neurodegeneration in vivo by effective mitigation of the expanded CAG RNA-induced nucleolar stress.
as §2

MJDCAA/G78 RNA = assay: Isothermal titration calorimetry binding assay, expanded MJDCAA/G78 RNA
Experimental: To test whether P3V8 specifically targets expanded CAG RNA, ITC experiments were performed using unexpanded CAG RNA (MJDCAG27 RNA), expanded CAG RNA (MJDCAG78 RNA), and expanded CAA/G RNA (MJDCAA/G78 RNA), respectively, to investigate whether the binding of P3V8 is RNA expansion-dependent and sequence-dependent (Table 6).
as §1

Compound	egg-to-adult viability (wild type Drosophila)	Kd (MJDCAG78 RNA) [µM]	pre-45s rRNA level (pre-45s rRNA)	pre-rRNA level (pre-rRNA)	Kd (MJDCAA/G78 RNA; ITC, 0.7 mM peptide into 0.5 μM MJDCAA/G78 RNA, mean ± S.E.M.) [µM]	lower affinity than for expanded CAG RNA (MJDCAA/G78 RNA; expanded CAA/G RNA vs expanded MJDCAG78 RNA)
CCCCCCCCCCCCCCCC(=O)N[C@@H](CC(=O)O)C(=O)NCC(=O)N[C@@H](CCCCN)C(=O)N[C@@H](CO)C(=O)N[C@@H](CCCCN)C(=O)NCC(=O)N[C@H](C(=O)N[C@@H](C)C(=O)N[C@@H](Cc1ccc(O)cc1)C(=O)N[C@H](C(=O)N[C@@H](CCC(=O)O)C(=O)N[C@@H](Cc1ccccc1)C(=O)N[C@@H](CCCCN)C(N)=O)[C@@H](C)CC)[C@@H](C)CC [L1P3V8] (Palmitoyl-DGKSKGIAYIEFK-NH2)	no obvious alteration; also recorded: did not affect the viability					
Ac-DGKSKGIAYIEFK-NH2 [P3V8]		0.33	dose-dependent restoration	fully recovered to the DsRedCAG0 control level	2.94 ± 0.96	6-9 fold

Source: patent publication US10570177B2, “P3 peptidylic inhibitors for treating CAG-repeat RNA toxicity in polyglutamine diseases” (The Chinese University of Hong Kong, priority 2017, dated 2020)
